Source: US20140227333A1, “DRY ACTIVE OXYGEN TECHNOLOGY” (ECOLAB USA INC., priority 2013, published 2014)
Read-outs that look alike come from different tables or passages of the source.

How the values were obtained:
[1] = cited from earlier work
[2] = Titration of hydrogen peroxide concentration, initially and 24 hours later (stability of the active oxidant); assay type: physicochemical; details: titrated initially and 24 hours later
Experimental: The dry-to-touch powder compositions generated in Example 2 were further analyzed for stability of the active oxidant. The compositions were titrated initially and 24 hours later, giving nearly the same resulting amount of hydrogen peroxide concentration in the untreated liquid composition (35%) and the dry-to-touch powder composition (31%).

Molecule	PEI protonated ([1]; pH 2)	PEI protonated ([1]; pH 4)	PEI protonated ([1]; pH 5)	PEI protonated ([1]; pH 8)	PEI protonated ([1]; pH 10)	hydrogen peroxide concentration [2]
polyethyleneimine [PEI]	about 73%	about 50%	about 33%	about 25%	about 4%	–
OO [liquid hydrogen peroxide (35%), hydrogen peroxide]	–	–	–	–	–	35%
